This passage reports MIC results from patent publication US8481544B2, “Antibacterial compositions” (Biota Europe Limited, priority 2006, dated 2013).

The subject of the assay is Enterococcus faecalis ATCC 29212. Description: MIC against Enterococcus faecalis ATCC 29212. The format is cell-based. Particulars: ATCC29212; Enterococcus faecalis ATCC 29212; read-out: MICs against Enterococcus faecalis, Activity. The protocol:
Institute. Methods for Dilution Antimicrobial Susceptibility Tests for Bacteria That Grow Aerobically; Approved Standard—Seventh Edition. Document M7-A7. CLSI, Wayne, Pa., 2006; Clinical Laboratories and Standards Institute. Methods for Antimicrobial Susceptibility Testing of Anaerobic Bacteria; Approved Standard—Sixth Edition. Document M11-A6. CLSI, Wayne, Pa., 2004).
Compounds of this invention were tested for antimicrobial activity by susceptibility testing in liquid or on solid media. MICs for compounds against each strain were determined by the broth microdilution or agar dilution method according to the guidelines of the Clinical Laboratories and Standards Institute, formerly the National Committee for Clinical Laboratory Standards (Clinical Laboratories and Standards Institute. Methods for Dilution Antimicrobial Susceptibility Tests for Bacteria That Grow Aerobically; Approved Standard—Seventh Edition. Document M7-A7. CLSI, Wayne, Pa., 2006; Clinical Laboratories and Standards Institute. Methods for Antimicrobial Susceptibility Testing of Anaerobic Bacteria; Approved Standard—Sixth Edition. Document M11-A6. CLSI, Wayne, Pa., 2004).

Each structure is given as a SMILES string. In brackets after ≈: the same amount, converted by molar mass.

For `CCNC(=O)Nc1nc2cc(-c3cccnc3)cc(-c3ncccc3Cl)c2s1` [Example 126, 1-[7-(3-Chloro-pyridin-2-yl)-5-pyridin-3-yl-benzothiazol-2-yl]-3-ethyl-urea], the MIC was under 0.25 µg/mL.

For the compound `CCNC(=O)Nc1nc2cc(-c3cccnc3)cc(-c3ncccn3)c2s1` [Example 93, 1-Ethyl-3-(5-pyridin-3-yl-7-pyrimidin-2-yl-benzothiazol-2-yl)-urea], the MIC is 0.25 to 1 µg/mL (≈ 0.664 to 2.66 µM).

Turning to `CCNC(=O)Nc1nc2cc(-c3cnc(OC)nc3)cc(-c3cccnc3)c2s1` [Example 15, 1-Ethyl-3-[5-(2-methoxy-pyrimidin-5-yl)-7-pyridin-3-yl-benzothiazol-2-yl]-urea], the MIC is 0.25 to 1 µg/mL (≈ 0.615 to 2.46 µM).

On to `CCNC(=O)Nc1nc2cc(-c3ccc(OC)nc3)cc(-c3cccnc3)c2s1` [Example 29, 1-Ethyl-3-[5-(6-methoxy-pyridin-3-yl)-7-pyridin-3-yl-benzothiazol-2-yl]-urea], for which the MIC lay in the range of 0.25 to 1 µg/mL (≈ 0.617 to 2.47 µM).

Turning to `CCNC(=O)Nc1nc2cc(-c3cccnc3)cc(-c3nc(CO)cs3)c2s1` [Example 106, 1-Ethyl-3-[7-(4-hydroxymethyl-thiazol-2-yl)-5-pyridin-3-yl-benzothiazol-2-yl]-urea], the MIC is 0.25 to 1 µg/mL (≈ 0.608 to 2.43 µM).

As to `CCNC(=O)Nc1nc2cc(-c3cnn(C)c3)cc(-c3cnn(C)c3)c2s1` [Example 7, 1-[5,7-Bis-(1-methyl-1H-pyrazol-4-yl)-benzothiazol-2-yl]-3-ethyl-urea], the MIC was in the range of 0.25 to 1 µg/mL (≈ 0.655 to 2.62 µM).

Take `CCNC(=O)Nc1nc2cc(-c3ccc(NC(=O)CNC(C)(C)C)nc3)cc(-c3ccccn3)c2s1` [Example 55, 2-tert-Butylamino-N-{5-[2-(3-ethyl-ureido)-7-pyridin-2-yl-benzothiazol-5-yl]-pyridin-2-yl}-acetamide]: the MIC was in the range of 0.25 to 1 µg/mL (≈ 0.496 to 1.99 µM).

Turning to `CCNC(=O)Nc1nc2cc(-c3cccnc3)cc(-c3ccc(CN(C)C)cn3)c2s1` [Example 132, 1-[7-(5-Dimethylaminomethyl-pyridin-2-yl)-5-pyridin-3-yl-benzothiazol-2-yl]-3-ethyl-urea], the MIC was 2 to 16 µg/mL (≈ 4.62 to 37 µM).

With `CCNC(=O)Nc1nc2cc(-c3ccn(C)c(=O)c3)cc(-c3ccccn3)c2s1` [Example 51, 1-Ethyl-3-[5-(1-methyl-2-oxo-1,2-dihydro-pyridin-4-yl)-7-pyridin-2-yl-benzothiazol-2-yl]-urea], the MIC is under 0.25 µg/mL.

As to `CCNC(=O)Nc1nc2cc(-c3cnc(N)nc3)cc(-c3cccnc3)c2s1` [Example 14, 1-[5-(2-Amino-pyrimidin-5-yl)-7-pyridin-3-yl-benzothiazol-2-yl]-3-ethyl-urea], the MIC was 0.25 to 1 µg/mL (≈ 0.639 to 2.55 µM).

For the compound `CCNC(=O)Nc1nc2cc(-c3cccnc3)cc(-c3cccc(CO)n3)c2s1` [Example 104, 1-Ethyl-3-[7-(6-hydroxymethyl-pyridin-2-yl)-5-pyridin-3-yl-benzothiazol-2-yl]-urea], the MIC was under 0.25 µg/mL.

As for `CCNC(=O)Nc1nc2cc(-c3cccnc3)cc(-c3ncccc3C(F)(F)F)c2s1` [Example 128, 1-Ethyl-3-[5-pyridin-3-yl-7-(3-trifluoromethyl-pyridin-2-yl)-benzothiazol-2-yl]-urea], the MIC was 0.25 to 1 µg/mL (≈ 0.564 to 2.26 µM).

Take `CCNC(=O)Nc1nc2cc(-c3cccnc3)cc(-c3cc(C)ccn3)c2s1` [Example 176, 1-Ethyl-3-[7-(4-methyl-pyridin-2-yl)-5-pyridin-3-yl-benzothiazol-2-yl]-urea]: the MIC was under 0.25 µg/mL.

For the compound `CCNC(=O)Nc1nc2cc(-c3cccnc3)cc(-c3ccsc3)c2s1` [Example 77, 1-Ethyl-3-(5-pyridin-3-yl-7-thiophen-3-yl-benzothiazol-2-yl)-urea], the MIC lay in the range of 0.25 to 1 µg/mL (≈ 0.657 to 2.63 µM).

On to `CCNC(=O)Nc1nc2cc(-c3ccn(C)c(=O)c3)cc(-c3cccnc3)c2s1` [Example 47, 1-Ethyl-3-[5-(1-methyl-2-oxo-1,2-dihydro-pyridin-4-yl)-7-pyridin-3-yl-benzothiazol-2-yl]-urea], for which the MIC lay within 0.25 to 1 µg/mL (≈ 0.617 to 2.47 µM).

Regarding `CCNC(=O)Nc1nc2cc(-c3cncc(OC)c3)cc(-c3cncc(OC)c3)c2s1` [Example 143, 1-[5,7-Bis-(5-methoxy-pyridin-3-yl)-benzothiazol-2-yl]-3-ethyl-urea], the MIC was 0.25 to 1 µg/mL (≈ 0.574 to 2.3 µM).

In the case of `CCNC(=O)Nc1nc2cc(-c3cccnc3)cc(-c3ccc(OC)nn3)c2s1` [Example 105, 1-Ethyl-3-[7-(6-methoxy-pyridazin-3-yl)-5-pyridin-3-yl-benzothiazol-2-yl]-urea], the MIC was 0.25 to 1 µg/mL (≈ 0.615 to 2.46 µM).

On to `CCNC(=O)Nc1nc2cc(-c3cnccc3N)cc(-c3cccnc3)c2s1` [Example 44, 1-[5-(4-Amino-pyridin-3-yl)-7-pyridin-3-yl-benzothiazol-2-yl]-3-ethyl-urea], for which the MIC was 2 to 16 µg/mL (≈ 5.12 to 41 µM).

On to `CCNC(=O)Nc1nc2cc(-c3ccn(CCN4CCOCC4)c(=O)c3)cc(-c3ccccn3)c2s1` [Example 63, 1-Ethyl-3-{5-[1-(2-morpholin-4-yl-ethyl)-2-oxo-1,2-dihydro-pyridin-4-yl]-7-pyridin-2-yl-benzothiazol-2-yl}-urea], for which the MIC was 0.25 to 1 µg/mL (≈ 0.495 to 1.98 µM).

As for `CCNC(=O)Nc1nc2cc(-c3cccnc3)cc(-c3cnccn3)c2s1` [Example 101, 1-Ethyl-3-(7-pyrazin-2-yl-5-pyridin-3-yl-benzothiazol-2-yl)-urea], the MIC is under 0.25 µg/mL.

In the case of `CCNC(=O)Nc1nc2cc(-c3cccnc3)cc(-c3cccc(N)n3)c2s1` [Example 125, 1-[7-(6-Amino-pyridin-2-yl)-5-pyridin-3-yl-benzothiazol-2-yl]-3-ethyl-urea], the MIC was under 0.25 µg/mL.

For `CCNC(=O)Nc1nc2cc(-c3cnccn3)cc(-c3cnc(N)nc3)c2s1` [Example 73, 1-[7-(2-Amino-pyrimidin-5-yl)-5-pyrazin-2-yl-benzothiazol-2-yl]-3-ethyl-urea], the MIC is 2 to 16 µg/mL (≈ 5.1 to 40.8 µM).

For `CCNC(=O)Nc1nc2cc(-c3ccc(C(=O)OC)nc3)cc(-c3cccnc3)c2s1` [Example 26, 5-[2-(3-Ethyl-ureido)-7-pyridin-3-yl-benzothiazol-5-yl]-pyridine-2-carboxylic acid methyl ester], the MIC lay in the range of 0.25 to 1 µg/mL (≈ 0.577 to 2.31 µM).

`CCNC(=O)Nc1nc2cc(-c3cccnc3)cc(-c3ncco3)c2s1` [Example 165, 1-Ethyl-3-(7-oxazol-2-yl-5-pyridin-3-yl-benzothiazol-2-yl)-urea]: the MIC is 0.25 to 1 µg/mL (≈ 0.684 to 2.74 µM).

For `CCNC(=O)Nc1nc2cc(-c3cccnc3)cc(-c3cnc(N)nc3)c2s1` [Example 42, 1-[7-(2-Amino-pyrimidin-5-yl)-5-pyridin-3-yl-benzothiazol-2-yl]-3-ethyl-urea], the MIC lay within 0.25 to 1 µg/mL (≈ 0.639 to 2.55 µM).

`CCNC(=O)Nc1nc2cc(-c3cccnc3)cc(-c3cccc(OC)c3)c2s1` [Example 86, 1-Ethyl-3-[7-(3-methoxy-phenyl)-5-pyridin-3-yl-benzothiazol-2-yl]-urea]: the MIC lay within 0.25 to 1 µg/mL (≈ 0.618 to 2.47 µM).

On to `CCNC(=O)Nc1nc2cc(-c3cccnc3)cc(C(=O)NN)c2s1` [Example 153, 1-Ethyl-3-(7-hydrazinocarbonyl-5-pyridin-3-yl-benzothiazol-2-yl)-urea], for which the MIC lay in the range of 2 to 16 µg/mL (≈ 5.61 to 44.9 µM).

As for `CCNC(=O)Nc1nc2cc(-c3cnccn3)cc(-c3cnccn3)c2s1` [Example 10, 1-(5,7-Di-pyrazin-2-yl-benzothiazol-2-yl)-3-ethyl-urea], the MIC is under 0.25 µg/mL.

In the case of `CCNC(=O)Nc1nc2cc(-c3cccnc3)cc(-c3cn[nH]c3)c2s1` [Example 80, 1-Ethyl-3-[7-(1H-pyrazol-4-yl)-5-pyridin-3-yl-benzothiazol-2-yl]-urea], the MIC was 0.25 to 1 µg/mL (≈ 0.686 to 2.74 µM).
